This passage reports Activity results from ChEMBL document CHEMBL5247656, “Discovery of a Potent, Cooperative, and Selective SOS1 PROTAC ZZ151 with In Vivo Antitumor Efficacy in KRAS-Mutant Cancers” (J Med Chem, 2023).

The data set in a line: Toxicity in BALB/c nude mouse xenografted with human SW620 cells harboring KRAS G12V mutant assessed as body weight loss at 10 to 20 mg/kg, ip administered once daily for 2 weeks. Conditions: in vivo, 336 h, dose 10-20 mg/kg. In kind it is organism-based, SW-620. In general terms: Xenograft models place foreign cells or tissue in a host animal.

Regarding `COc1cc2nc(C)nc(N[C@H](C)c3cc(N)cc(C(F)(F)F)c3)c2cc1C1CCN(C(=O)CCCCCC(=O)N[C@H](C(=O)N2C[C@H](O)C[C@H]2C(=O)N[C@@H](C)c2ccc(-c3scnc3C)cc2)C(C)(C)C)CC1`, the Activity entry was “Non-Toxic”.
